Experimental data as given in patent publication US20170190705A1, “Compositions and Methods for Inhibiting BMP” (THE BRIGHAM AND WOMAN'S HOSPITAL, INC., priority 2014, published 2017).

Key:
Assay type in all cases: biochemical
TSSK1 = molecular target: T1, TSSK1 (Homo sapiens, UniProt Q9BXA7); test: Kinome profiling TSSK1; conditions: read-out: Inhibitory activity TSSK1; for inhibition at 0.1 µM: 100 nM
T1 sequence (Q9BXA7 1-367): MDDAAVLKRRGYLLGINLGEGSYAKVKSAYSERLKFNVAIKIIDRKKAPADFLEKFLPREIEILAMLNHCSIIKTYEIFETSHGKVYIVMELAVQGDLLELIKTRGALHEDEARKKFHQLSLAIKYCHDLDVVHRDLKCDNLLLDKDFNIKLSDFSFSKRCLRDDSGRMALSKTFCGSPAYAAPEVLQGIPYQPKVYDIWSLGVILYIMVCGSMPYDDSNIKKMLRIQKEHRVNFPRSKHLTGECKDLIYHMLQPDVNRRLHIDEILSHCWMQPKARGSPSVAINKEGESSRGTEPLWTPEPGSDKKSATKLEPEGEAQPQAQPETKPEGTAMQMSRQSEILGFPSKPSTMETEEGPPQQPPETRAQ
Description: (§1) . The kinome-wide selectivity was determined following the methods previously reported by Mohedas et al., ACS Chem Biol 2013, 8, 1291-1302 and Sanvitale et al., PLoS One 2013, 8, e62721.

NEK1 = molecular target: T2, NEK1 (Homo sapiens, UniProt Q96PY6); test: Kinome profiling NEK1; conditions: read-out: Inhibitory activity NEK1; for inhibition at 0.1 µM: 100 nM
T2 sequence (Q96PY6 1-1258): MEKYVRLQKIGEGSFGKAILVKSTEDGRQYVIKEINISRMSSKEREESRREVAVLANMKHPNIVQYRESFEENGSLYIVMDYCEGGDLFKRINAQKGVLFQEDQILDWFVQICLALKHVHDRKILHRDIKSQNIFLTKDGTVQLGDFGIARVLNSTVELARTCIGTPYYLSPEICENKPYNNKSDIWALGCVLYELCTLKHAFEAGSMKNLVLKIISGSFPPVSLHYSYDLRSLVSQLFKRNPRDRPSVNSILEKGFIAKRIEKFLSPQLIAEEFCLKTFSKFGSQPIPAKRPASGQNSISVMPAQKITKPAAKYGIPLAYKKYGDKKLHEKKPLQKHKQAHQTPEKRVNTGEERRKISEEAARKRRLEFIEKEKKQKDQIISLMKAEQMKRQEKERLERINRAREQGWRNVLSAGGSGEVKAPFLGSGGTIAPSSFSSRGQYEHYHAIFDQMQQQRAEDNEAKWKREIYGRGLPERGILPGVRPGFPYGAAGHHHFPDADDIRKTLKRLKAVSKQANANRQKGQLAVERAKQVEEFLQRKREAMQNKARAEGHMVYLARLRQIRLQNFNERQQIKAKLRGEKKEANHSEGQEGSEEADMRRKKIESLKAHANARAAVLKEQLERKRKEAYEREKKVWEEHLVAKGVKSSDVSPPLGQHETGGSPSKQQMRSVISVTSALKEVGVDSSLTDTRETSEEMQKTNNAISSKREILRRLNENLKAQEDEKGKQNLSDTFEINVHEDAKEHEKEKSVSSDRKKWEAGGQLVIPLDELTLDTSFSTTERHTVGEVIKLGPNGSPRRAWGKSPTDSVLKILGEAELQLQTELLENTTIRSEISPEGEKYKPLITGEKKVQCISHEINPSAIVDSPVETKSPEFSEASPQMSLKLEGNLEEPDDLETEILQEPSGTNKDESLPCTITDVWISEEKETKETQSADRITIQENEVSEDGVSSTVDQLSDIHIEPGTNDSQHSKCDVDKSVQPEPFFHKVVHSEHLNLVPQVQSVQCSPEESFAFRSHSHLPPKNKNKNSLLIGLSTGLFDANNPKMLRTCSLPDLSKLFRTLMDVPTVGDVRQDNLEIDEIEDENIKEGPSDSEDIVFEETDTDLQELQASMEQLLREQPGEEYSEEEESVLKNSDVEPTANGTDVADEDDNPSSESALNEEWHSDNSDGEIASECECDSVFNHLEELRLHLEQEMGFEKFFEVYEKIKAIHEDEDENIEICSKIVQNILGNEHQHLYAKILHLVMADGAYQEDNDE
Description: as §1

MUSK = molecular target: T3, MUSK (Homo sapiens, UniProt O15146); test: Kinome profiling MUSK; conditions: read-out: Inhibitory activity MUSK; for inhibition at 0.1 µM: 100 nM
T3 sequence (O15146 24-869): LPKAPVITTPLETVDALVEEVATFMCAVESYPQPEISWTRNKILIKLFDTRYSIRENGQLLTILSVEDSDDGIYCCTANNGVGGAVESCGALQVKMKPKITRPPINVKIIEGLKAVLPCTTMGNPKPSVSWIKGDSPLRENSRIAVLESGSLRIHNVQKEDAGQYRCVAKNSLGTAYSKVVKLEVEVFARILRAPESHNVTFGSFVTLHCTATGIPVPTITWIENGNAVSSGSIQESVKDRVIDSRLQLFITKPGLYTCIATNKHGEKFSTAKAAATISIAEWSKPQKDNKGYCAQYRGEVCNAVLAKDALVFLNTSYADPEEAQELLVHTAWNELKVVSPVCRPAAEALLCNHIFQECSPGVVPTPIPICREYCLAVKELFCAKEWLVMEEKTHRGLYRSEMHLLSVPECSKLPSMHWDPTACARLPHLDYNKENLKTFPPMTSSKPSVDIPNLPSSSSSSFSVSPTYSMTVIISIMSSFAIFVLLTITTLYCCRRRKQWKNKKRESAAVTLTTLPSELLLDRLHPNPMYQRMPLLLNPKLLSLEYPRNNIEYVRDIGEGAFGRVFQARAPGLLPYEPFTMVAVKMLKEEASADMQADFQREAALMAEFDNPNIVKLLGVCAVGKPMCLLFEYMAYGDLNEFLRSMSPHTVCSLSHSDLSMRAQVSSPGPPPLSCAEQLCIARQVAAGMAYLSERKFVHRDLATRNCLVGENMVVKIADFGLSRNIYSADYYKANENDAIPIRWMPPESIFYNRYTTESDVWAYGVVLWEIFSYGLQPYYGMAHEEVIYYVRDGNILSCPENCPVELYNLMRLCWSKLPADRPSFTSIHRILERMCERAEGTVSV
Description: as §1

FLT-1 = FLT-1 (Homo sapiens, UniProt P17948); test: Kinome profiling FLT-1; conditions: read-out: Inhibitory activity FLT-1; for inhibition at 0.1 µM: 100 nM
Sequence of FLT-1 (P17948 27-1338): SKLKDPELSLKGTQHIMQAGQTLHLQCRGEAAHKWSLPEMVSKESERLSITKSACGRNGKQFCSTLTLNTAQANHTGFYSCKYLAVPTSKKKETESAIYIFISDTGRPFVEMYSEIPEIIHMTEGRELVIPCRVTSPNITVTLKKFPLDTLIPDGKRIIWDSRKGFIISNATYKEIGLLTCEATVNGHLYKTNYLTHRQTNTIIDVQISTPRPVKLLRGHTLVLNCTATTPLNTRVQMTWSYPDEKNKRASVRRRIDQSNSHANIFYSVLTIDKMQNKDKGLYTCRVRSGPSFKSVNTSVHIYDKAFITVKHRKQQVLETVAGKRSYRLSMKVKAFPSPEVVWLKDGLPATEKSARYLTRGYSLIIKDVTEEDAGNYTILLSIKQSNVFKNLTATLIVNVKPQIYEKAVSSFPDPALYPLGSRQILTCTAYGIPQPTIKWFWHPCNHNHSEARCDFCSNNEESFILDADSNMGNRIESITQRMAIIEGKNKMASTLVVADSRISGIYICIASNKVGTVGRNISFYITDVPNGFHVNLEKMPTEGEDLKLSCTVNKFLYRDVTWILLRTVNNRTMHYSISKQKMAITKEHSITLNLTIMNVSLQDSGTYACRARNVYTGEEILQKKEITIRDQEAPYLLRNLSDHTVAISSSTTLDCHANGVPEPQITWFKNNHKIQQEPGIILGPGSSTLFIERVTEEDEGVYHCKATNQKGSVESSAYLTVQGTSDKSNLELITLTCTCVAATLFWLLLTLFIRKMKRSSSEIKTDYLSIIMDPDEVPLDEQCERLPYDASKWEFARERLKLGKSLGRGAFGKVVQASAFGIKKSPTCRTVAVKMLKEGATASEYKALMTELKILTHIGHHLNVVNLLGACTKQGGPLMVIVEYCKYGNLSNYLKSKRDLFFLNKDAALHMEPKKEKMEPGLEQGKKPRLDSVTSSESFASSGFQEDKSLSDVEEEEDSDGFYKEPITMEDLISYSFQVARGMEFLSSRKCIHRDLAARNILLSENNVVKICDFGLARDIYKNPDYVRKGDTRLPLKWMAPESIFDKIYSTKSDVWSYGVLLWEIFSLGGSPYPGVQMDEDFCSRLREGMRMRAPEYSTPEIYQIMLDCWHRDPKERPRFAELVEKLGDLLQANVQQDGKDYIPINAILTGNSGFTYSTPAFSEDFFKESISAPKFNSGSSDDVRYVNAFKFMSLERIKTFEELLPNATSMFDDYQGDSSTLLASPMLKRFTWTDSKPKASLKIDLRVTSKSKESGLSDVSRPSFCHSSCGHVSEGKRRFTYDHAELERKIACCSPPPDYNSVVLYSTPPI
Description: as §1

EPH-A2 = EPH-A2 (Homo sapiens, UniProt P29317); test: Kinome profiling EPH-A2; conditions: read-out: Inhibitory activity EPH-A2; for inhibition at 0.1 µM: 100 nM
Sequence of EPH-A2 (P29317 24-976): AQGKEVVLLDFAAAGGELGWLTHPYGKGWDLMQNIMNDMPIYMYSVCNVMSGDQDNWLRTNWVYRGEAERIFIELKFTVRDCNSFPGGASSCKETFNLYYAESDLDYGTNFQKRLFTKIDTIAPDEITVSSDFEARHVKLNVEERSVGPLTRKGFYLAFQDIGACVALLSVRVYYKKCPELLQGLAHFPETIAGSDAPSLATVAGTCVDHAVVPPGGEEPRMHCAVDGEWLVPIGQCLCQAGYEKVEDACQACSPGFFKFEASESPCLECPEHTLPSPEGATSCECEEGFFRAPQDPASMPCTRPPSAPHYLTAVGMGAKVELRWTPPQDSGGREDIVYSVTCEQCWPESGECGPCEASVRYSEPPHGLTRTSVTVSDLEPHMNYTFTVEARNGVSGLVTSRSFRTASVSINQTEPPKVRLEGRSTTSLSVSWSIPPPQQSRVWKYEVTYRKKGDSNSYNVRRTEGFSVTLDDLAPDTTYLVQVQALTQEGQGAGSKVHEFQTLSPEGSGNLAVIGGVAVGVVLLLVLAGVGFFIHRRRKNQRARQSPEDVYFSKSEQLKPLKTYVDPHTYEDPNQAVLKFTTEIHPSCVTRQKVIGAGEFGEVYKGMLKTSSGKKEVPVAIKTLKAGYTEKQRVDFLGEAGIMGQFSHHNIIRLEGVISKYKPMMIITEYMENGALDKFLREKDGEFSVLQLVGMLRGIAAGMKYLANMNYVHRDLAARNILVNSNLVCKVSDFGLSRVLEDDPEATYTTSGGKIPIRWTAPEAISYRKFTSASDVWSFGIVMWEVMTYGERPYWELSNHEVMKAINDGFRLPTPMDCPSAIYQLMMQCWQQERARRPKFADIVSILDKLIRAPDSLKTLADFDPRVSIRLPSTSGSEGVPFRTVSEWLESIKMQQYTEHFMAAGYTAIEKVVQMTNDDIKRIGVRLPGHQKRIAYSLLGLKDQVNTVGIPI
Description: as §1

CDK3/cyclinE = CDK3/cyclinE (Homo sapiens, UniProt Q00526); test: Kinome profiling CDK3/cyclinE; conditions: read-out: Inhibitory activity CDK3/cyclinE; for inhibition at 0.1 µM: 100 nM
Sequence of CDK3/cyclinE (Q00526 whole entry): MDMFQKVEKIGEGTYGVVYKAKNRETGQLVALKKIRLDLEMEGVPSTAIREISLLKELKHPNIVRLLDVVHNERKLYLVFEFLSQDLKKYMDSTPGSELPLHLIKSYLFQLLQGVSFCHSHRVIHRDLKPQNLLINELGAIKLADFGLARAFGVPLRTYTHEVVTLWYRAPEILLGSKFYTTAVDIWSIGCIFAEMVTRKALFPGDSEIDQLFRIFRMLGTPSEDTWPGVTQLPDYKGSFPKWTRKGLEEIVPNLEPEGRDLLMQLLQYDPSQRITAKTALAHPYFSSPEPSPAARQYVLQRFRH
Sequence of CDK3/cyclinE (P24864 whole entry partner): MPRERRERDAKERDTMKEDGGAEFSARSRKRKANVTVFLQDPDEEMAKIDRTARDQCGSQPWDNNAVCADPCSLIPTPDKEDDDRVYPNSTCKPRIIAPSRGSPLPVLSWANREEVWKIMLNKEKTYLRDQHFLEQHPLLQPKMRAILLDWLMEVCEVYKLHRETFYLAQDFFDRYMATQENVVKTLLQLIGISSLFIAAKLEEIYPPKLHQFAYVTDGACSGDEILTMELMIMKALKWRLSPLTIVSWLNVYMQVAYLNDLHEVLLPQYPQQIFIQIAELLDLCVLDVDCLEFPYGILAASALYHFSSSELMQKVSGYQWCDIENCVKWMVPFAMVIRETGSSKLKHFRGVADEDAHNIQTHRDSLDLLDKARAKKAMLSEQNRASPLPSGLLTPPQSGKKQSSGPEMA
Description: as §1

SMILES | inhibition at 0.1 µM (TSSK1) | inhibition at 1 µM (TSSK1) | inhibition at 0.1 µM (NEK1) | inhibition at 1 µM (NEK1) | inhibition at 0.1 µM (MUSK) | inhibition at 1 µM (MUSK) | inhibition at 0.1 µM (FLT-1) | inhibition at 1 µM (FLT-1) | inhibition at 0.1 µM (EPH-A2) | inhibition at 1 µM (EPH-A2) | inhibition at 0.1 µM (CDK3/cyclinE) | inhibition at 1 µM (CDK3/cyclinE)
COc1cc(-c2cc(-c3ccc(N4CCNCC4)cc3)cnc2C)cc(OC)c1OC [Compound 10, 1-(4-(6-methyl-5-(3,4,5-trimethoxyphenyl)pyridin-3-yl)phenyl)piperazine] | 2% | 2% | 2% | 1% | 2% | 2% | 8% | 16% | -2% | 1% | 2% | 2%
COc1cc(-c2cc(-c3ccc(N4CCNCC4)cc3)cnc2N)cc(OC)c1OC [Compound 15, 5-(4-(piperazin-1-yl)phenyl)-3-(3,4,5-trimethoxyphenyl)pyridin-2-amine] | 1% | 5% | 1% | 1% | 1% | 5% | 3% | 5% | -3% | 4% | 0% | 0%
